The conditions of data set [1]: human clinical tests (K. Kawabe et al., J. Urol., 1990); cited from earlier work.
Data set [2] addresses T1, rat α1B-receptor subtype (Rattus norvegicus, UniProt P15823).
T1 sequence (P15823 1-515): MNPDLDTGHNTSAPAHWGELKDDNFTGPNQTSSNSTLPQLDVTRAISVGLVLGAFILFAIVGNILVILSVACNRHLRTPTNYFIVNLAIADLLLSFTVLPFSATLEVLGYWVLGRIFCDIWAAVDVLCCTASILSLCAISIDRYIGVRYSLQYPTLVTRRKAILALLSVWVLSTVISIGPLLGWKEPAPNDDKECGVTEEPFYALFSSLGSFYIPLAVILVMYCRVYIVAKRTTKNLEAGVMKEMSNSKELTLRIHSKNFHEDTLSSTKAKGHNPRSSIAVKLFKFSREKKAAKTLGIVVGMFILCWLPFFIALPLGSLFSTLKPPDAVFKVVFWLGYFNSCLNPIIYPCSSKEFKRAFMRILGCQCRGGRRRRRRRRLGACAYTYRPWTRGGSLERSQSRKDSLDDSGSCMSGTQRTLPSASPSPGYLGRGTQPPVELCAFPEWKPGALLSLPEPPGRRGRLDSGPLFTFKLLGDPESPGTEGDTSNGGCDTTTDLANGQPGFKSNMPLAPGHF
Put plainly: Competitive binding experiment against [³H] prazosin, transfected COS-7 cell membranes. Further details: pcDV1Rα1B which contains a 2573 bp fragment containing the entire coding region of α1B receptor subtype cDNA; expressed in transfected cells; host or cells: COS-7 cells, transient expression, membrane preparation. The protocol: (§1) After 4 days of the transfection, these cells were again suspended in an ice-cold buffer for binding experiment (50 mmol/l Tris, 0.5 mmol/l EDTA, pH 7.5) and homogenized using Tissumeizer for 10 seconds at a maximum speed and then twice for 20 seconds at 2/3 speed. The thus obtained homogenate was centrifuged at 50,000 g for 20 minutes, and the resulting pellet was again suspended in the buffer for binding experiment to a concentration of 0.5 to 2 mg/ml.
(§2) This incubation was terminated by quick filtration under a reduced pressure using Whatman GF/C filter paper. Non-specific binding was defined as binding in the presence of 10 µmol/l of phentolamine. […] The protein content was determined in accordance with the Bradford method using bovine IgG as an standard. In the competitive binding experiment, each compound was evaluated by 3 to 4 tests using at least two separate batches of transfected cells.
(§3) The result was shown as the average value ± SEM of n times of tests.

In data set [3] the target is T2, bovine α1C-receptor subtype (Bos taurus, UniProt P18130).
T2 construct: pBCα1c which contains the entire coding region of bovine α1C receptor subtype; expressed in transfected cells; host or cells: COS-7 cells, transient expression, membrane preparation
T2 sequence (P18130 1-466): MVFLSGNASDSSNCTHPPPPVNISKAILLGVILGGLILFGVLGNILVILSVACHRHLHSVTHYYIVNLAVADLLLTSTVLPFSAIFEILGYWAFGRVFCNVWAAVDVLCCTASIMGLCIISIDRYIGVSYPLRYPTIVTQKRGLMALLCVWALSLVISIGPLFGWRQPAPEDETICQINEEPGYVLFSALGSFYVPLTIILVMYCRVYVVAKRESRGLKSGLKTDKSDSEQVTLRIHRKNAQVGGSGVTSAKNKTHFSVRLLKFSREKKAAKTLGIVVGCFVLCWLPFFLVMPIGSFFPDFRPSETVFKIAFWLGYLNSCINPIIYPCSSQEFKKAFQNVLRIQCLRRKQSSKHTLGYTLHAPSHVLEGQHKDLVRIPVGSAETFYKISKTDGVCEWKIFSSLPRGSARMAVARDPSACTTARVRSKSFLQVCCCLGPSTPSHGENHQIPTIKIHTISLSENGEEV
Described as above.

In data set [4] the target is T1, rat α1B-receptor subtype. Conditions: average ± SEM, n=5. The protocol: as §1, §2, §3
Data set [5] has as its target T3, rat α1A/D-receptor subtype (Rattus norvegicus, UniProt P23944).
T3 sequence (P23944 1-561): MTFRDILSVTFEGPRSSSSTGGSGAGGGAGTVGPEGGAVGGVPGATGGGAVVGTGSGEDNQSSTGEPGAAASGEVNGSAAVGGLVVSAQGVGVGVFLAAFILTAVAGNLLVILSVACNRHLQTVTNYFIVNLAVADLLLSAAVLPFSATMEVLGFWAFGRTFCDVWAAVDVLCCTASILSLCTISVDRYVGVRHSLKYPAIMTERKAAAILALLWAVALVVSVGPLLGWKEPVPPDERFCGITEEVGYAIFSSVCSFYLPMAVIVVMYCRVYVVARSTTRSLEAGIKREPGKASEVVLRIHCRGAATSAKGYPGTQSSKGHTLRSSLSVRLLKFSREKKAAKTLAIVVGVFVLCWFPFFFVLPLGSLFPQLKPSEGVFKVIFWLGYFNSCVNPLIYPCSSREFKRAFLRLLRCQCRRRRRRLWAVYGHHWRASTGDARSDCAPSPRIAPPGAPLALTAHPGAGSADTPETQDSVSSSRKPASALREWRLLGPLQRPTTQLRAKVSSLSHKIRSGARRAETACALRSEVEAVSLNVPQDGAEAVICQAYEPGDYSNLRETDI
To be noted: average ± SEM, n=8. The protocol: as §1, §2, §3

Setting [6] is: read-out: negative logarism values (-log values) of Ki values (converted).

Read-outs that look alike come from different tables or passages of the source.

By Ki is commonly meant the dissociation constant of the complex between target and ligand, obtained from inhibition or displacement.

For `CCOc1ccccc1OCCN[C@H](C)Cc1ccc(OC)c(S(N)(=O)=O)c1` [Compound A, R(-)-5-[2-[[2-(o-ethoxyphenoxy)ethyl]amino]propyl]-2-methoxybenzenesulfonamide], in data set [1], the “influence upon blood pressure” value was “without exerting influence upon blood pressure”, the side effects entry is “hardly shows side effects” and the “treatment of urinary outlet obstruction associated with benign prostatic hyperplasia” value is reported as “useful in treating urinary outlet obstruction associated with benign prostatic hyperplasia”. Moreover, the Ki on rat α1B-receptor subtype [2] (setting [6]) was 0.871 nM. This compound also showed a Ki in data set [3] of 0.0229 nM.

Turning to `CCOc1ccccc1OCCN[C@@H](C)Cc1ccc(OC)c(S(N)(=O)=O)c1` [Compound B, S(+)-5-[2-[[2-(o-ethoxyphenoxy)ethyl]amino]propyl]-2-methoxybenzenesulfonamide], the inhibitory constant (Ki) at rat α1B-receptor subtype [2] is 105 nM; in data set [3] (setting [6]), 0.347 nM.

For the compound [³H] prazosin, the values for the BMAX (at rat α1B-receptor subtype [4]; in data set [5]) were 1673 ± 1203 fmol/mg protein and 240 ± 87 fmol/mg protein, respectively.

The values above are taken from EP0710486A1, “REMEDY FOR URINATION DISORDER ACCOMPANYING PROSTATIC HYPERTROPHY” (YAMANOUCHI PHARMACEUTICAL CO. LTD., priority 1993, dated 1995).
